The results in this text go back to patent US5214038A, “1-(pyrido[3,4-b]-1,4-oxazinyl-4-yl)-1H-indoles and intermediates for the preparation thereof” (priority 1991, dated 1993).

Assay [1] has as its target T1, Brain AChE (acetylcholinesterase, rat striatum) (Rattus norvegicus, UniProt P37136).
T1 construct: corpora striata dissected free, weighed and homogenized in 19 volumes; from tissue; host or cells: corpora striata of male Wistar rats, crude homogenate
T1 sequence (P37136 32-614): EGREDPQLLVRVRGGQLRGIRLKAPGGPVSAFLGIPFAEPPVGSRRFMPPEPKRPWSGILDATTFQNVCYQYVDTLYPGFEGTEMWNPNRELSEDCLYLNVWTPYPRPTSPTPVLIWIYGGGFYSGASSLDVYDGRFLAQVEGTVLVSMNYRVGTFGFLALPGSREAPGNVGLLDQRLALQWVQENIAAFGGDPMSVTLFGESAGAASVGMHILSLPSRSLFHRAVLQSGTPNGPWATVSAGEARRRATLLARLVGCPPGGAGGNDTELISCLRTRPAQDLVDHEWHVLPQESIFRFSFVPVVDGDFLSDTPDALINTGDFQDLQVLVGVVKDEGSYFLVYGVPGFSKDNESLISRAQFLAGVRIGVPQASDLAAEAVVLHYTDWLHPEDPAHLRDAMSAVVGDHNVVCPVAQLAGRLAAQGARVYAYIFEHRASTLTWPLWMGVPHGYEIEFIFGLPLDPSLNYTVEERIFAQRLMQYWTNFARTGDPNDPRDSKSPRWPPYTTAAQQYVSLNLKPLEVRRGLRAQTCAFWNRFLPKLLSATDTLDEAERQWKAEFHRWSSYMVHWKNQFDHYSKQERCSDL
Nature of the assay: biochemical. The settings on record: rat striatum homogenate; 5 mM acetylthiocholine; pH 7.2; 10 min preincubation at 37° C.; read-out: Inhibitory Concentration, Brain AChE. An excerpt: Cholinesterases are found throughout the body, both in the brain and in serum. However, only brain acetylcholinesterase (AChE) distribution is correlated with central cholinergic innervation. […] We have determined in vitro inhibition of acetylcholinesterase activity in rat striatum according to the method described below.
In Vitro Inhibition of Acetylcholinesterase Activity in Rat Striatum
The method described below was used in this invention for assaying anticholinesterase activity. This is a modification of the method of Ellman et al., Biochem. Pharmacol. 7, 88 (1961).
1. 0.05M Phosphate buffer, pH 7.2
(a) 6.85 g NaH2 PO4 .cndot.H2 O/100 ml distilled H2 O
(c) add (a) to (b) until pH reaches 7.2
4. A 2 mM stock solution of the test drug is made up in a suitable solvent and q.s. to volume with 0.5 mM DTNB (reagent 3). Drugs are serially diluted (1:10) such that the final concentration (in cuvette) is 10^-4 M and screened for activity. If active, IC50 values are determined from the inhibitory activity of subsequent concentrations.
Enzyme activity is measured with the Beckman DU-50 spectrophotometer. This method can be used for IC50 determinations and for measuring kinetic constants.
This program also calculates the rate of absorbance change for each cuvette.
Substrate concentration is 10 mM diluted 1:2 in assay yielding final concentration of 5 mM.

In assay [2] the test system is Scopolamine Induced Memory Deficit. It counts as in vivo, mice. On the procedure: In this assay mice are tested for their ability to remember an unpleasant stimulus for a period of 24 hours. A mouse is placed in a chamber that contains a dark compartment; a strong incandescent light drives it to the dark compartment, where an electric shock is administered through metal plates on the floor. The animal is removed from the testing apparatus and tested again, 24 hours later, for the ability to remember the electric shock.
If scopolamine, an anticholinergic that is known to cause memory impairment, is administered before an animal's initial exposure to the test chamber, the animal re-enters the dark compartment shortly after being placed in the test chamber 24 hours later. This effect of scopolamine is blocked by an active test compound, resulting in a greater interval before-re-entry into the dark compartment.
The results for an active compound are expressed as the percent of a group of animals in which the effect of scopolamine is blocked, as manifested by an increased interval between being placed in the test chamber and re-entering the dark compartment.
Results of this assay for some of the compounds of this invention and those for tacrine and pilocarpine (reference compounds) are presented in Table 2.

In another assay the test system is norepinephrine uptake. The assay can be described thus: 3H-Norepinephrine Uptake in Rat Whole Brain Synaptosomes. It counts as biochemical. The settings on record: 50 nM 3H-NE, 37° C., 5 minutes, read-out: IC50 (3H-norepinephrine uptake inhibition). Here is the method:
^3 H-Norepinephrine Uptake in Rat Whole Brain Synaptosomes
This assay is used as a biochemical screen for compounds that enhance adrenergic mechanism by blocking norepinephrine uptake.
A. Animals: Male CR Wistar rats (100-125 g).
1. Krebs-Henseleit Bicarbonate Buffer, pH 7.4 (KHBB). Make a 1 liter batch, containing the following salts.
2. 0.32M Sucrose: 21.9 g of sucrose, Q.S. to 200 ml.
3. A 0.1 mM stock solution of L(-)-Norepinephrine bitartrate is made up in 0.01N HCl. This is used to dilute the specific activity of radiolabeled NE.
4. Levo-[Ring-2,5,6-^3 H]-Norepinephrine (40-50 Ci/mmol) is obtained from New England Nuclear. The final desired concentration of ^3 H-NE in the assay is 50 nM. The dilution factor is 0.8; therefore the KHBB is made up to contain 62.5 nM [^3 H]-NE. Add to 100 ml of KHBB:
5. For most assays, a 1 mM stock solution of the test compound is made up in suitable solvent and serially diluted such that the final concentration in the assay ranges from 2×10^-8 to 2×10^-5 M. Seven concentrations are used for each assay. Higher or lower concentrations may be used depending on the potency of the test compound.
Male Wistar rats are decapitated and brains rapidly removed. Either whole brain minus cerebella or hypothalamus is weighed and homogenized in 9 volumes of ice-cold 0.32M sucrose using a Potter-Elvejhem homogenizer. Homogenization should be done with 4-5 up and down strokes at medium speeds to minimize synaptosome lysis. The homogenate is centrifuged at 1000 g for 10 min at 0°-4° C. The supernatant (S1) is decanted and is used for uptake experiments.
800 μl: KHBB containing [^3 H]-NE
20 μl: Vehicle or appropriate drug concentration
200 μl: Tissue suspension
Tubes are incubated at 37° C. under a 95% O2 /5% CO2 atmosphere for 5 minutes. For each assay, 3 tubes are incubated with 20 μl of vehicle at 0° C. in an ice bath. After incubation all tubes are immediately centrifuged at 4000 g for 10 minutes. […] The tubes are vigorously vortexed, decanted into scintillation vials, and counted in 10 ml of Liquiscint scintillation counting cocktail. […]

SMILES strings stand for the structures. pIC50: −log10 of the molar value. Read-outs that look alike come from different tables or passages of the source.

Regarding `CNC(=O)Oc1ccc2c(ccn2N2CCOc3cnccc32)c1` [1-(Pyrido-[3,4-b]-1,4-oxazin-4-yl)-1H-indol'-5-yl methylcarbamate], the pIC50 in assay [1] was 7.27. In addition, the “% of Animals with Scopolamine Induced Memory Deficit Reversal” value (from here on “% of Animals”) in assay [2] (mice, 0.01 mg/kg of body weight, s.c., retest 24 hours) turned out to be 27%; in assay [2] (mice, 0.03 mg/kg of body weight, s.c., retest 24 hours), 20%; in assay [2] (mice, 0.10 mg/kg of body weight, s.c., retest 24 hours) it was 33%. `Cc1cn(N2CCOc3cnccc32)c2ccccc12` [4-(3-Methyl-1H-indol-1-yl)-pyrido[3,4-b]-1,4-oxazine]: the pIC50 in the assay on norepinephrine uptake was 5.22. The same measure, in the same setting: the same measure for `CN(C)CCC=C1c2ccccc2CCc2ccccc21` [Amitriptyline]: 5.11; for `CNCCC=C1c2ccccc2CCc2ccccc21` [Nortriptyline]: 5.40. For `CC[C@@H]1C(=O)OC[C@@H]1Cc1cncn1C` [Pilocarpine, reference compound], the “% of Animals” value in assay [2] (mice, 5.0 mg/kg of body weight, s.c., retest 24 hours) was 13%.

Turning to `Nc1c2c(nc3ccccc13)CCCC2` [Tacrine, reference compound], the “% of Animals” value in assay [2] (mouse, in vivo, sc, 0.63 mg/kg) worked out at 13%.
